The target in experiment [1] is T1, Bovine LOX (Bos taurus, UniProt P33072).
T1 sequence (P33072 170-418): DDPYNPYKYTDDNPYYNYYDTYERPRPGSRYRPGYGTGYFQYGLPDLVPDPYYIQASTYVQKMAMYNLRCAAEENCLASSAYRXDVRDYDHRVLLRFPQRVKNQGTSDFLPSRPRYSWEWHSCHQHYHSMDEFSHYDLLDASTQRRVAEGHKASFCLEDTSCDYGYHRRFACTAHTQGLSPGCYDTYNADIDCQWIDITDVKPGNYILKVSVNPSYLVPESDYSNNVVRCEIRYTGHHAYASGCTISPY
In words: LOX inhibition, hydrogen peroxide Amplex Red oxidation assay. The experiment is classed as biochemical. The following applies: 2 h incubation with enzyme at 37 °C. The method, then: (§1) LOX and LOXL protein family members can be acquired as recombinant active proteins from commercial sources, or extracted from animal tissues like bovine aorta, tendons, pig skin; or prepared from cell cultures. The inhibitory effects of the compounds of the present invention were tested against the given LOX or LOXL preparation using a method based on the detection of hydrogen peroxide with an Amplex Red oxidation assay [Zhou et al, 1997]. The assay was developed using either 384 or 96 well format. Briefly, in a standard black, clear bottom 384 well plate assay 25 µL of a dilution of any of the isoenzymes and orthologues in 1.2 M urea, 50 mM sodium borate buffer (pH 8.2) were added into each well in the presence of […] and 0.5 mM pargyline (to inhibit SSAO and MAO-B and MAO-A, respectively; not necessary if the enzyme is from a recombinant or purified form). […] of a reaction mixture containing twice the KM concentration of putrescine (Sigma Aldrich, e.g. 20 mM for LOX and LOXL1 or 10 mM for LOXL2 and 4 mM for LOXL3 and LOXL4), 120 µM Amplex Red (Thermo Fisher Scientific) and 1.5 U/mL horseradish peroxidase (Sigma Aldrich) prepared in 1.2 M urea, 50 mM sodium borate buffer (pH 8.2) were then added to the corresponding wells. The above volumes were doubled in the case of 96 wells plate. The fluorescence (RFU) was read every 2.5 min for 30 min at 37 °C, excitation 544 nm and emission 590 (Optima; BMG labtech). The slope/min of the kinetics for each well was calculated using MARS data analysis software (BMG labtech) and this value was used to deduce the IC50 value (Dotmatics). The ability of the inventive compounds to inhibit the amine oxidase activity of LOX and other family members is shown in Table 5.

Experiment [2] deals with T2, LOXL2 (Homo sapiens, UniProt Q9Y4K0).
T2 sequence (Q9Y4K0 26-774): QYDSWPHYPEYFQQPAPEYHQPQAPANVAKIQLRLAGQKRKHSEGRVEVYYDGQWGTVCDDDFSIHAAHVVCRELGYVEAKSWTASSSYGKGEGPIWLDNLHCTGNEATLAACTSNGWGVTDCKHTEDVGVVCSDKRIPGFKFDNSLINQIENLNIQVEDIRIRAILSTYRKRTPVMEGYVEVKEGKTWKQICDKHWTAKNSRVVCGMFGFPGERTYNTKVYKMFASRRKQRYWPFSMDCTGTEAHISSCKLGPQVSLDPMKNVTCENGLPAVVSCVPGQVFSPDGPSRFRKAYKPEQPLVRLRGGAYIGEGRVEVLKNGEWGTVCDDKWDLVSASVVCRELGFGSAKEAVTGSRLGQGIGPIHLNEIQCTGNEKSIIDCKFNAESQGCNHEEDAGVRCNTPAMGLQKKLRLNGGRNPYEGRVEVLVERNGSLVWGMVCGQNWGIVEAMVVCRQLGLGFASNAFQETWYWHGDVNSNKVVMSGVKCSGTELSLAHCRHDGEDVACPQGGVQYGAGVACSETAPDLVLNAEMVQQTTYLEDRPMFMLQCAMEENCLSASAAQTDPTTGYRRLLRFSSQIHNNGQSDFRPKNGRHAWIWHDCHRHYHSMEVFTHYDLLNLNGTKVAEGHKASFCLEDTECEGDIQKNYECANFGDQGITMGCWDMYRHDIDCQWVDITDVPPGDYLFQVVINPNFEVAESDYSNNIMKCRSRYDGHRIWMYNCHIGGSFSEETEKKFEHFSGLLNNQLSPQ
The experiment in a line: LOXL2 inhibition, Amplex Red oxidation assay. The experiment is classed as biochemical. The following applies: 2 h incubation with enzyme at 37 °C; read-out: Human LOXL2 Activity IC50. The method, then:
as §1

IC50 data for 29 compounds are collected here from patent US20260364030A1, “NOVEL SELECTIVE INHIBITORS OF LYSYL OXIDASES” (Syntara Limited, priority 2022, published 2026).

Usually IC50 stands for the concentration that inhibits the measured activity by half.

SMILES strings stand for the structures.

Turning to `N#Cc1ccccc1S(=O)(=O)C/C(=C/F)CN` [Compound 12, (E)-2-((2-(aminomethyl)-3-fluoroallyl)sulfonyl)benzonitrile], the 50% inhibitory concentration (IC50) in experiment [1] and in experiment [2] was below 5 µM throughout.

Consider `Cc1ccc(S(=O)(=O)C/C(=C/F)CN)cc1Cl` [Compound 8, (E)-2-(((3-chloro-4-methylphenyl)sulfonyl)methyl)-3-fluoroprop-2-en-1-amine], for which the IC50 in experiment [1] and in experiment [2] was below 2 µM each time.

In the case of `NC/C(=C\F)CS(=O)(=O)c1cccc2cccnc12` [Compound 7, (E)-3-fluoro-2-((quinolin-8-ylsulfonyl)methyl)prop-2-en-1-amine], the figures for the IC50 in experiment [1] and in experiment [2] were below 10 µM and below 2 µM, respectively.

Consider `Cc1ccc(S(=O)(=O)C/C(=C/F)CN)cc1` [Compound 4, (E)-3-fluoro-2-(tosylmethyl)prop-2-en-1-amine], for which the IC50 in experiment [1] is below 5 µM; in experiment [2], below 2 µM.

The compound `NC/C(=C\F)CS(=O)(=O)c1cccc(-n2nccn2)c1` [Compound 34, (E)-2-(((3-(2H-1,2,3-triazol-2-yl)phenyl)sulfonyl)methyl)-3-fluoroprop-2-en-1-amine] registered a half-maximal inhibitory concentration (IC50) in experiment [1] below 5 µM.

On to `NC/C(=C\F)CS(=O)(=O)c1cccc(C(=O)O)c1` [Compound 26, (E)-3-((2-(aminomethyl)-3-fluoroallyl)sulfonyl)benzoic acid], for which the values for the IC50 in experiment [1] and in experiment [2] were below 10 µM and below 5 µM, respectively.

As to `NC/C(=C\F)CS(=O)(=O)c1ccccc1Cl` [Compound 6, (E)-2-(((2-chlorophenyl)sulfonyl)methyl)-3-fluoroprop-2-en-1-amine], the half-maximal inhibitory concentration (IC50) in experiment [1] and in experiment [2] was below 5 µM in each case.

`CS(=O)(=O)c1cccc(S(=O)(=O)C/C(=C/F)CN)c1` [Compound 23, (E)-3-fluoro-2-(((3-(methylsulfonyl)phenyl)sulfonyl)methyl)prop-2-en-1-amine]: the concentration for half-maximal inhibition (IC50) in experiment [1] and in experiment [2] was below 2 µM in each case.

In the case of `N#Cc1cccc(S(=O)(=O)C/C(=C/F)CN)c1` [Compound 2, (E)-3-((2-(aminomethyl)-3-fluoroallyl)sulfonyl)benzonitrile], the IC50 in experiment [1] and in experiment [2] was below 2 µM each time.

In the case of `NC/C(=C\F)CS(=O)(=O)c1cccc(Br)c1` [Compound 15, (E)-2-(((3-bromophenyl)sulfonyl)methyl)-3-fluoroprop-2-en-1-amine], the IC50 in experiment [1] and in experiment [2] was below 2 µM each time.

Turning to `[2H]c1c([2H])c([2H])c(S(=O)(=O)C/C(=C/F)CN)c([2H])c1[2H]` [Compound 30, (E)-3-fluoro-2-(((phenyl-d5)sulfonyl)methyl)prop-2-en-1-amine], the IC50 in experiment [1] and in experiment [2] was below 5 µM in each case.

For `NC/C(=C/F)CS(=O)(=O)c1ccccc1` [Compound 37, (Z)-3-fluoro-2-((phenylsulfonyl)methyl)prop-2-en-1-amine], the IC50 in experiment [1] and in experiment [2] was below 2 µM in each case.

On to `NC/C(=C\F)CS(=O)(=O)c1ccc(C(=O)O)cc1` [Compound 31, (E)-4-((2-(aminomethyl)-3-fluoroallyl)sulfonyl)benzoic acid], for which the 50% inhibitory concentration (IC50) in experiment [1] and in experiment [2] was below 10 µM each time.

Regarding `NC/C(=C\F)CS(=O)(=O)c1cccc2c1OCCO2` [Compound 33, (E)-2-(((2,3-dihydrobenzo[b][1,4]dioxin-5-yl)sulfonyl)methyl)-3-fluoroprop-2-en-1-amine], the IC50 in experiment [1] and in experiment [2] was below 10 µM in each case.

On to `Cc1ccn(-c2cccc(S(=O)(=O)C/C(=C/F)CN)c2)n1` [Compound 18, (E)-3-fluoro-2-(((3-(3-methyl-1H-pyrazol-1-yl)phenyl)sulfonyl)methyl)prop-2-en-1-amine], for which the concentration for half-maximal inhibition (IC50) in experiment [1] and in experiment [2] was below 2 µM throughout.

For `Cc1ncc(-c2cccc(S(=O)(=O)C/C(=C/F)CN)c2)s1` [Compound 17, (E)-3-fluoro-2-(((3-(2-methylthiazol-5-yl)phenyl)sulfonyl)methyl)prop-2-en-1-amine], the IC50 in experiment [1] and in experiment [2] was below 2 µM each time.

For `NC/C(=C\F)CS(=O)(=O)c1cccc(C(N)=O)c1` [Compound 27, (E)-3-((2-(aminomethyl)-3-fluoroallyl)sulfonyl)benzamide], the IC50 in experiment [1] and in experiment [2] was below 2 µM throughout.

On to `NC/C(=C\F)CS(=O)(=O)c1cccc(C(F)(F)F)c1` [Compound 10, (E)-3-fluoro-2-(((3-(trifluoromethyl)phenyl)sulfonyl)methyl)prop-2-en-1-amine], for which the IC50 in experiment [1] and in experiment [2] was below 2 µM throughout.

With `NC/C(=C\F)CS(=O)(=O)c1cccc([N+](=O)[O-])c1` [Compound 13, (E)-3-fluoro-2-(((3-nitrophenyl)sulfonyl)methyl)prop-2-en-1-amine], the IC50 in experiment [1] and in experiment [2] was below 2 µM in each case.

Take `Cc1ccc(S(=O)(=O)C/C(=C/F)CN)cc1C#N` [Compound 29, (E)-5-((2-(aminomethyl)-3-fluoroallyl)sulfonyl)-2-methylbenzonitrile]: the half-inhibitory concentration (IC50) in experiment [1] and in experiment [2] was below 2 µM in each case.

As for `NC/C(=C\F)CS(=O)(=O)c1cccc(S(=O)(=O)c2ccccc2)c1` [Compound 14, (E)-3-fluoro-2-(((3-(phenylsulfonyl)phenyl)sulfonyl)methyl)prop-2-en-1-amine], the concentration for half-maximal inhibition (IC50) in experiment [1] and in experiment [2] was below 2 µM throughout.

In the case of `Cc1ccc(S(=O)(=O)C/C(=C/F)CN)cc1C` [Compound 9, (E)-2-(((3,4-dimethylphenyl)sulfonyl)methyl)-3-fluoroprop-2-en-1-amine], the IC50 in experiment [1] and in experiment [2] was below 2 µM in each case.

Take `N#Cc1ccc(S(=O)(=O)C/C(=C/F)CN)cc1` [Compound 28, (E)-4-((2-(aminomethyl)-3-fluoroallyl)sulfonyl)benzonitrile]: the values for the half-maximal inhibitory concentration (IC50) in experiment [1] and in experiment [2] were below 5 µM and below 2 µM, respectively.

Consider `NC/C(=C\F)CS(=O)(=O)c1cccc(CN2CCCCCC2=O)c1` [Compound 36, (E)-1-(3-((2-(aminomethyl)-3-fluoroallyl)sulfonyl)benzyl)azepan-2-one], for which the IC50 in experiment [1] was below 10 µM; in experiment [2], below 5 µM.

Regarding `CS(=O)(=O)c1cccc(Oc2ccccc2S(=O)(=O)C/C(=C/F)CN)c1` [Compound 35, (E)-3-fluoro-2-(((2-(3-(methylsulfonyl)phenoxy)phenyl)sulfonyl)methyl)prop-2-en-1-amine], the IC50 in experiment [1] is below 5 µM; in experiment [2] it was below 2 µM.

`Cc1ccccc1S(=O)(=O)C/C(=C/F)CN` [Compound 3, (E)-3-fluoro-2-((o-tolylsulfonyl)methyl)prop-2-en-1-amine]: the figures for the IC50 in experiment [1] and in experiment [2] were below 5 µM and below 2 µM, respectively.

Consider `NC/C(=C\F)CS(=O)(=O)c1ccc2c(c1)OCCO2` [Compound 25, (E)-2-(((2,3-dihydrobenzo[b][1,4]dioxin-6-yl)sulfonyl)methyl)-3-fluoroprop-2-en-1-amine], for which the half-inhibitory concentration (IC50) in experiment [1] and in experiment [2] was below 2 µM in each case.

With `NC/C(=C\F)CS(=O)(=O)c1ccc2ccccc2c1` [Compound 22, (E)-3-fluoro-2-((naphthalen-2-ylsulfonyl)methyl)prop-2-en-1-amine], the 50% inhibitory concentration (IC50) in experiment [1] and in experiment [2] was below 2 µM in each case.

As to `CS(=O)(=O)c1ccc(S(=O)(=O)C/C(=C/F)CN)cc1` [Compound 21, (E)-3-fluoro-2-(((4-(methylsulfonyl)phenyl)sulfonyl)methyl)prop-2-en-1-amine], the IC50 in experiment [1] and in experiment [2] was below 2 µM in each case.
